Values quoted from earlier work in patent publication US12377031B2, “Cosmetic compositions comprising 4-hydroxyacetophenone” (L'OREAL, priority 2020, dated 2025).

CC(=O)c1ccc(O)cc1 [4-hydroxyacetophenone, 4-Hydroxyacetophenone]
heating temperature required to solubilize into aqueous systems: ≥ 60 °C
solubility in water: limited solubility
